Source: patent US8859781B2, “No-releasing nonoate(nitrogen-bound)sulfonamide-linked-coxib anti-cancer agents” (Euclises Pharmaceuticals, Inc., priority 2012, dated 2014)

Tested on: PGE2 levels in exudate (carrageenan-challenged air pouch)
Assay: Air pouch assay of acute inflammation measuring exudate volume and PGE2 levels in exudate in rats
Format: in vivo, Sprague-Dawley rats
Details: rat air pouch; for PGE2 (pg/mL), mean in exudate / Volume (mL), mean collected exudate volume: 0.01 mmol/kg oral 2 h before 1% carrageenan, exudate 4 h after carrageenan, group mean, 5 rats/group; for PGE2 (pg/mL), mean in exudate: ELISA; for reduction in collected exudate volume / reduction in exudate PGE2 release / effect on the carrageenan-induced increase in PGE2 release / effect on the carrageenan-induced increase in exudate volume: 0.01 mmol/kg oral pretreatment; for reduction in collected exudate volume / reduction in exudate PGE2 release: vs vehicle; for effect on the carrageenan-induced increase in PGE2 release / effect on the carrageenan-induced increase in exudate volume: result in words
Method: Compound Testing in the Air Pouch Assay of Acute Inflammation Measuring PGE2 Levels in Exudate in Rats
Animals: Sprague-Dawley rats (Charles River Laboratories., R #3234, PO #738990, male, 160-180 g) were received, individually examined, and housed in cages of five rats each. The rats were ear notched for identification purposes.
Compounds and Dosing Solutions: The vehicle was prepared by dissolving 40 g (2-hydroxypropyl)-β-cyclodextrin (HP-β-CD, Sigma, Cat. 332593, lot MKBJ5858V) in 160 mL sterile saline for injection, USP (Hospira, lot 26-801-FW) making a 25% solution which was filter sterilized (0.2 μm, Nalgene, Cat. 151-4020, lot 1095610). A 1% carrageenan solution was prepared by dissolving […] (Fluka, Cat. 22049, lot 1318338) in hot 60 mL sterile saline for injection, USP. This solution was stored at 4-8° C. Test compounds were dissolved in DMSO (Fisher Scientific, Cat. D128-500, lot 874999) to make 75 mM stocks. 0.25 mL of compound DMSO stocks were mixed with 12.5 mL of HP-13-CD solution at 50° C. (maximum DMSO concentration was 2% of the final volume of vehicle,). Final concentration of all test compounds was 1.5 mM and compounds were dosed within 2 hours of preparation at 0.01 mmol/kg (12 […] of test compound per rat).
Day 0—Air Pouch Initiation: The rats were anesthetized in a biological cabinet, the nape of the neck was cleansed with 70% isopropanol (Butler Schein Animal Health, Cat. 002498, lot 29EMS07104547) followed by 1% povidone-iodine solution (Ricca Chemical Co., Cat. 3955-16, lot 2205469). Twenty mL of sterile (0.22 μm, Millipore, Cat. SLGP033RS, lot R2KA55925, exp August 2015) air was injected subcutaneously (SC) using a 23G×1½ inch needle fixed to a 20 mL syringe. The rats were returned to routine housing. No adverse reactions were observed.
Day 3—Air Pouch Maintenance: The rats were anesthetized in a biological cabinet, the nape of the neck was cleansed with 70% isopropanol followed by 1% povidone-iodine solution. Ten mL of sterile air was injected SC using a 23G×1½ inch needle fixed to a 20 mL syringe. The rats were returned to routine housing in clean cages. No adverse reactions were observed.
Day 6—Compound Administration and Carrageenan Insult: At commencement of the study, each rat was weighed and sorted into treatment groups of 5 rats/group based upon average weight. Each rat was dosed orally via gavage at 6.809 mL/kg (1.6 mL/235 g) with their respective test material/vehicle. Two hours after test material/vehicle administration, the rats were injected with 1.0 mL of the room temperature 1% carrageenan saline solution into the air pouch. Four hours after carrageenan injection, the rats were anesthetized and 5 mL of the exudate buffer was injected into the air pouch. The pouch was gently massaged, the exudate immediately removed, and exudate volume recorded. The exudate was collected in a serum separator tube on an ice bath. The exudates were centrifuged (refrigerated) and an aliquot of the supernatant was stored in a labeled Eppendorf tube at −80° C.
Termination of Study: Animals were euthanized via CO2 asphyxiation at the completion of the in-life portion of this study and carcasses were disposed of according to standard protocols.
Data Analysis: The exudate samples were thawed to room temperature and assayed by ELISA for PGE2 (R&D Systems, Cat. KGE004B, lot 307711). Statistical significance of treatments on mean exudate volumes are determined by comparison of means for treatment groups with vehicle group. Mean cytokine concentrations and standard deviations are determined for each group. Statistical significance of treatments on cytokine concentrations are determined for each compound group compared to vehicle group. Statistical significance (p-value) was calculated vs control groups by Student's t-Test.

Cc1ccc(-c2cc(C(F)(F)F)nn2-c2ccc(S(=O)(=O)NC(=O)CN(C)/[N+]([O-])=N/OCOC(=O)C(C)(C)C)cc2)cc1 [Compound 602, (Z)-3-Methyl-3-(2-oxo-2-(4-(5-(p-tolyl)-3-(trifluoromethyl)-1H-pyrazol-1-yl)phenylsulfonamido)ethyl)-1-((pivaloyloxy)methoxy)triaz-1-ene 2-oxide]
PGE2 (pg/mL), mean in exudate: 1915.2 pg/mL
Volume (mL), mean collected exudate volume: 4.5 mL
reduction in collected exudate volume: 20%
reduction in exudate PGE2 release: 56%

Cc1ccc(-c2cc(C(F)(F)F)nn2-c2ccc(S(=O)(=O)NC(=O)OCCN(C)/[N+]([O-])=N/OCOC(=O)C(C)(C)C)cc2)cc1 [Compound 202, (Z)-5,12,12-Trimethyl-1,11-dioxo-1-(4-(5-(p-tolyl)-3-(trifluoromethyl)-1H-pyrazol-1-yl)phenylsulfonamido)-2,8,10-trioxa-5,6,7-triazatridec-6-ene 6-oxide]
PGE2 (pg/mL), mean in exudate: 4959.1 pg/mL
Volume (mL), mean collected exudate volume: 5.6 mL
effect on the carrageenan-induced increase in PGE2 release: did not show any effect
effect on the carrageenan-induced increase in exudate volume: did not show any effect

Cc1ccc(-c2cc(C(F)(F)F)nn2-c2ccc(S(N)(=O)=O)cc2)cc1 [Celecoxib, 4-(5-(p-Tolyl)-3-(trifluoromethyl)-1H-pyrazol-1-yl)benzenesulfonamide, reference compound]
PGE2 (pg/mL), mean in exudate: 907.1 pg/mL
Volume (mL), mean collected exudate volume: 4.6 mL
reduction in collected exudate volume: 19%
reduction in exudate PGE2 release: 80%

CN(CCO)/[N+]([O-])=N/OCOC(=O)C(C)(C)C [Compound N402, (Z)-3-(2-Hydroxyethyl)-3-methyl-1-((pivaloyloxy)methoxy)triaz-1-ene 2-oxide]
PGE2 (pg/mL), mean in exudate: 3782.4 pg/mL
Volume (mL), mean collected exudate volume: 5.4 mL
effect on the carrageenan-induced increase in PGE2 release: did not show any effect
effect on the carrageenan-induced increase in exudate volume: did not show any effect
